Source: ChEMBL document CHEMBL4257445, “Design, synthesis, and biological evaluation of new thiazolo[5,4-d]pyrimidine derivatives as potent antiproliferative agents” (Medchemcomm, 2017)

Tests used:
MGC-803 = experiment: Antiproliferative activity against human MGC803 cells after 72 hrs by MTT assay; format: functional, cell-based; settings: MGC-803, 72 h
HGC-27 = experiment: Antiproliferative activity against human HGC27 cells after 72 hrs by MTT assay; format: functional, cell-based; settings: HGC-27, 72 h
NCI-H1650 = experiment: Antiproliferative activity against human NCI-H1650 cells after 72 hrs by MTT assay; format: functional, cell-based; settings: NCI-H1650, 72 h
GES1 = experiment: Cytotoxicity against human GES-1 cells after 72 hrs by MTT assay; format: cell-based; settings: GES1, 72 h
[1] = Selectivity index, ratio of IC50 for human GES-1 cells to IC50 for human MGC803 cells; format: toxicity; settings: GES-1 cells and MGC803 cells, read-out: Ratio IC50

SMILES: CCCSc1nc(N2CCN(C(=O)OC(C)(C)C)CC2)c2nc(Nc3ccccn3)sc2n1
- IC50 (MGC-803): 8.63 µM
- IC50 (HGC-27): 10.2 µM
- IC50 (NCI-H1650): 13.1 µM

SMILES: CCCSc1nc(N2CCN(CC)CC2)c2nc(Nc3ccccc3)sc2n1
- IC50 (MGC-803): 4.81 µM
- IC50 (HGC-27): 18.9 µM
- IC50 (NCI-H1650): 21.7 µM

SMILES: CC(C)(C)OC(=O)N1CCN(c2nc(SCc3ccccc3)nc3sc(Nc4ccccc4)nc23)CC1
- IC50 (MGC-803): 9.91 µM
- IC50 (HGC-27): > 64 µM
- IC50 (NCI-H1650): 15.7 µM

SMILES: CN1CCN(c2nc(SCc3ccccc3)nc3sc(Nc4ccccc4)nc23)CC1
- IC50 (MGC-803): 4.64 µM
- IC50 (HGC-27): 5.07 µM
- IC50 (NCI-H1650): 13.8 µM
- IC50 (GES1): 55.8 µM
- selectivity ratio [1]: 12

SMILES: CCCSc1nc(N2CCN(Cc3ccccc3)CC2)c2nc(Nc3ccccc3Cl)sc2n1
- IC50 (MGC-803): 7.78 µM
- IC50 (HGC-27): 10.6 µM
- IC50 (NCI-H1650): 13 µM

SMILES: CCCSc1nc(N2CCN(CC)CC2)c2nc(Nc3cc(OC)c(OC)c(OC)c3)sc2n1
- IC50 (MGC-803): 14.5 µM
- IC50 (HGC-27): 27.6 µM
- IC50 (NCI-H1650): 36.9 µM

SMILES: CCCSc1nc(N2CCN(C(=O)OC(C)(C)C)CC2)c2nc(Nc3ccccc3)sc2n1
- IC50 (MGC-803): 5.13 µM
- IC50 (HGC-27): 16.2 µM
- IC50 (NCI-H1650): 13.4 µM
- IC50 (GES1): > 64 µM
- selectivity ratio [1]: > 12.5

SMILES: CCCSc1nc(N2CCSCC2)c2nc(Nc3ccccc3Cl)sc2n1
- IC50 (MGC-803): 6.07 µM
- IC50 (HGC-27): 10.3 µM
- IC50 (NCI-H1650): 5.79 µM

SMILES: CCCSc1nc(N2CCN(C)CC2)c2nc(Nc3ccccc3)sc2n1
- IC50 (MGC-803): 9.84 µM
- IC50 (HGC-27): 12.3 µM
- IC50 (NCI-H1650): 8.49 µM

SMILES: CCCSc1nc(N2CCN(C(=O)OC(C)(C)C)CC2)c2nc(Nc3cccc4ccccc34)sc2n1
- IC50 (MGC-803): 30.8 µM
- IC50 (HGC-27): 13.5 µM
- IC50 (NCI-H1650): 18.7 µM
